Tested on: MatTek's MelanoDerm skin epidermal equivalent tissues (MEL-300-B; NHEK and NHM)
Experiment: Skin Epidermal Equivalents Model as a Skin Lightening Test (ΔL)
Format: cell-based, human
Description: Skin Epidermal Equivalents Model as a Skin Lightening Test (ΔL)
Skin epidermal equivalent tissues are available commercially from MatTek's MelanoDerm™ System and were used for the following tests. MatTek's MelanoDerm™ System consists of normal, human-derived epidermal keratinocytes (NHEK) and melanocytes (NHM) which have been cultured to form a multilayered, highly differentiated model of the human epidermis. Specifically, MEL-300-B tissues, each 9 mm in diameter were used in the following tests.
The test materials prepared in an appropriate vehicle and tested concentrations were applied topically to the skin model daily and the experiment lasted for 8 days. Measurement was taken on day 9.
The macroscopic and microscopic visual tissue darkening end points were measured by taking pictures with a digital camera. The Degree of Lightness for each tissue (L-Value) was measured using a spectrophotometer (Konica Minolta CM-2600d). The ΔL (degree of lightness as compared to control) for each test sample is calculated as per following formula: ΔL=L-value of treated sample−L-value of control sample.

Q: Which “Skin Lightening (ΔL Value)” value (concentration 0.5%, topical daily for 8 days, measured day 9) does the source give for `CC(C)=CCCC(C)=CCCC(C)=CCOc1ccc(CCC(=O)O)cc1` [M-1, 3-(4-Farnesyloxyphenyl)propionic acid] here?
A: 1.2

Q: And the “Skin lightening efficacy compared with first extract E1” value (same concentration (0.5%) as E1)?
A: equal to first extract E1

— US9814659B2, “Methods of lightening the skin” (Johnson & Johnson Consumer Inc., priority 2012, dated 2017)
